Key:
[1] = tested on: Human immunodeficiency virus 1; experiment: Effective concentration required to inhibit HIV-1/138K induced cytopathicity in human CEM cell line; type: functional, organism-based; details: Human immunodeficiency virus 1, CCRF-CEM
CCRF-CEM [2] = experiment: Ratio of cytostatic concentration to effective concentration in human CEM cell line; type: functional
CCRF-CEM [3] = experiment: Cytostatic concentration required to inhibit cell proliferation in human CEM cell line; type: functional
[4] = tested on: Human immunodeficiency virus 2; experiment: Effective concentration required to inhibit HIV-2 induced cytopathicity in human CEM cell line; type: functional, organism-based; details: Human immunodeficiency virus 2, CCRF-CEM
[5] = tested on: Human immunodeficiency virus 2; experiment: Effective concentration required to inhibit HIV-2 induced cytopathicity in human MT-4 cell line; type: functional, organism-based; details: Human immunodeficiency virus 2, MT4
[6] = molecular target: Human immunodeficiency virus type 1 reverse transcriptase (Human immunodeficiency virus 1, UniProt Q72547); experiment: Inhibitory concentration required to inhibit recombinant HIV-1 reverse transcriptase
[7] = tested on: Human immunodeficiency virus 1; experiment: Effective concentration required to inhibit HIV-1 induced cytopathicity in human CEM cell line; type: functional, organism-based; details: Human immunodeficiency virus 1, CCRF-CEM
[8] = tested on: Human immunodeficiency virus 1; experiment: Effective concentration required to inhibit HIV-1 induced cytopathicity in human MT-4 cell line; type: functional, organism-based; details: Human immunodeficiency virus 1, MT4

Row | SMILES | EC50 [1] | SI (CCRF-CEM [2]) | CC50 (CCRF-CEM [3]) | EC50 [4] | EC50 [5] | IC50 [6] | EC50 [7] | EC50 [8]
1 | Cc1cn([C@@H]2O[C@H](CO[Si](C)(C)C(C)(C)C)C3(OS(=O)(=O)C=C3N)[C@H]2O[Si](C)(C)C(C)(C)C)c(=O)[nH]c1=O (stereo partly drawn) | > 10 µM | 200 | 12 µM | > 20 µM | > 20 µM | – | – | –
2 | Cc1cn([C@@H]2O[C@H](CO[Si](C)(C)C(C)(C)C)[C@@]3(OS(=O)(=O)C=C3N)[C@H]2O[Si](C)(C)C(C)(C)C)c(=O)n(CCc2ccccc2)c1=O | > 10 µM | 23 | 14.2 µM | > 10 µM | > 2 µM | > 500 µM | 0.62 µM | –
3 | COC(=O)Cn1c(=O)c(C)cn([C@@H]2O[C@H](CO[Si](C)(C)C(C)(C)C)[C@@]3(OS(=O)(=O)C=C3N)[C@H]2O[Si](C)(C)C(C)(C)C)c1=O | – | >253 | > 152 µM | > 152 µM | > 152 µM | 3 µM | 0.06 µM | 0.11 µM
4 | Cc1cn([C@@H]2O[C@H](CO[Si](C)(C)C(C)(C)C)[C@@]3(OS(=O)(=O)C=C3N)[C@H]2O[Si](C)(C)C(C)(C)C)c(=O)n(CC(=O)OCc2ccccc2)c1=O | – | 31 | 12.9 µM | > 5 µM | > 27 µM | > 250 µM | 0.41 µM | 0.54 µM
5 | Cc1cn([C@@H]2O[C@H](CO[Si](C)(C)C(C)(C)C)[C@@]3(OS(=O)(=O)C=C3N)[C@H]2O[Si](C)(C)C(C)(C)C)c(=O)n(Cc2ccccc2)c1=O | > 50 µM | 294 | 53 µM | > 50 µM | > 50 µM | > 500 µM | 0.18 µM | 0.47 µM
6 | Cc1cn([C@@H]2O[C@H](CO[Si](C)(C)C(C)(C)C)[C@@]3(OS(=O)(=O)C=C3N)[C@H]2O[Si](C)(C)C(C)(C)C)c(=O)n(CCC[N+](C)(C)C)c1=O.[I-] | > 25 µM | 22 | 110 µM | > 25 µM | > 25 µM | 11 µM | 5 µM | 4.9 µM
7 | COCCn1c(=O)c(C)cn([C@@H]2O[C@H](CO[Si](C)(C)C(C)(C)C)[C@@]3(OS(=O)(=O)C=C3N)[C@H]2O[Si](C)(C)C(C)(C)C)c1=O | > 10 µM | 485 | 38.8 µM | > 10 µM | > 10 µM | 2.9 µM | 0.08 µM | 0.16 µM
8 | Cc1cn([C@@H]2O[C@H](CO[Si](C)(C)C(C)(C)C)[C@@]3(OS(=O)(=O)C=C3N)[C@H]2O[Si](C)(C)C(C)(C)C)c(=O)n(CCBr)c1=O | > 50 µM | 4300 | 129 µM | > 50 µM | > 50 µM | > 500 µM | 0.03 µM | 0.17 µM
9 | Cc1cn([C@@H]2O[C@H](CO[Si](C)(C)C(C)(C)C)[C@@]3(OS(=O)(=O)C=C3N)[C@H]2O[Si](C)(C)C(C)(C)C)c(=O)n(CC2CC2)c1=O | > 50 µM | 335 | 60.4 µM | > 10 µM | > 50 µM | > 500 µM | 0.18 µM | 0.2 µM
10 | Cc1cn([C@@H]2O[C@H](CO[Si](C)(C)C(C)(C)C)[C@@]3(OS(=O)(=O)C=C3N)[C@H]2O[Si](C)(C)C(C)(C)C)c(=O)n(CCCN(C)C)c1=O | > 10 µM | 61 | 10.4 µM | > 10 µM | > 10 µM | 6.6 µM | 0.17 µM | 0.16 µM
11 | Cc1cn([C@@H]2O[C@H](CO[Si](C)(C)C(C)(C)C)[C@@]3(OS(=O)(=O)C=C3N)[C@H]2O[Si](C)(C)C(C)(C)C)c(=O)n(CCO)c1=O | 8 µM | 282 | 11.3 µM | > 10 µM | > 10 µM | 3.1 µM | 0.04 µM | 0.06 µM
12 | Cc1cn([C@@H]2O[C@H](CO[Si](C)(C)C(C)(C)C)[C@@]3(OS(=O)(=O)C=C3N)[C@H]2O[Si](C)(C)C(C)(C)C)c(=O)n(CCc2cccc3cc[nH]c23)c1=O | > 50 µM | 81 | 27.6 µM | > 50 µM | > 10 µM | > 500 µM | 0.34 µM | 0.96 µM
13 | CNC(=O)Cn1c(=O)c(C)cn([C@@H]2O[C@H](CO[Si](C)(C)C(C)(C)C)[C@@]3(OS(=O)(=O)C=C3N)[C@H]2O[Si](C)(C)C(C)(C)C)c1=O | 3.5 µM | >=12500 | ≥ 250 µM | > 50 µM | > 250 µM | 3.1 µM | 0.02 µM | 0.03 µM

From ChEMBL document CHEMBL1141126, “Improving the antiviral efficacy and selectivity of HIV-1 reverse transcriptase inhibitor TSAO-T by the introduction of functional groups at the N-3 position” (J Med Chem, 2005)
